# Test results reported in US20230365592A1 (Agios Pharmaceuticals, Inc., priority 2022, published 2023).
# Target: T1, human PAH with the R408W mutation (Homo sapiens, UniProt P00439, R408W)
# T1 construct: expressed in transfected cells
# T1 sequence (P00439 1-452 R408W): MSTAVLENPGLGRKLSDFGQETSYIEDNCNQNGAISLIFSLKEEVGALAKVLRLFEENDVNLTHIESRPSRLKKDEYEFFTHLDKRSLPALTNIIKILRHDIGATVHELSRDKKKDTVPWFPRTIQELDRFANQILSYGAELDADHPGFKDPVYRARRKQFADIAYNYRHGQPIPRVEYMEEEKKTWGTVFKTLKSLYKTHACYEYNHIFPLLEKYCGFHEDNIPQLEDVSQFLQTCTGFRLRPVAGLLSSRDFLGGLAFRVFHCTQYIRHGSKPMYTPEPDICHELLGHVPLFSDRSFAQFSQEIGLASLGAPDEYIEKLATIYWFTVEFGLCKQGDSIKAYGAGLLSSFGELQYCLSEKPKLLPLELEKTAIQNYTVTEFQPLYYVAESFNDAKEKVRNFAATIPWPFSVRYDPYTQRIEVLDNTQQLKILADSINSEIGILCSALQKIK
# Assay: Cell Based Phenylalanine Flux Assay;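 further: after compound treatment, cells received sepiapterin plus isotope-labelled Phenylalanine for 4 hours, then labelled Tyrosine in the medium was quantified, 10-point 2-fold dilution series run in duplicate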
# Settings: A375 cells expressing R408W PAH; 24 hrs with compound, then 20 µM sepiapterin and 800 µM 13C9,15N-Phenylalanine for 4 hours; 13C-Tyrosine by LC-MS; average where tested multiple times; read-out: AC50
row,Structure (SMILES),AC50 [µM]
1,FC(F)c1cccc2cc(C3c4nc[nH]c4CCN3c3ncccn3)nn12 (stereo not shown),1 to 5
2,COCc1ncc(C(=O)N2CCc3[nH]cnc3C2c2cc3ccccn3n2)s1 (stereo not shown) [listing 1 of 2 here],> 5
3,COc1cccn2nc(C3c4nc[nH]c4CCN3C(=O)c3cnn4cc(N(C)C)ccc34)cc12 (stereo not shown) [listing 1 of 2 here],> 5
4,COc1cccn2nc(C3c4nc[nH]c4CCN3C(=O)c3cnn4cc(-c5cnn(C)c5)ccc34)cc12 (stereo not shown) [listing 1 of 2 here],> 5
5,COc1ccc2c(C(=O)N3CCc4[nH]cnc4C3c3cc4c(OC)cccn4n3)cnn2c1 (stereo not shown) [listing 1 of 2 here],> 5
6,COc1ccc2c(C(=O)N3CCc4[nH]cnc4C3c3cc4cccc(C(F)F)n4n3)cnn2c1 (stereo not shown) [listing 1 of 2 here],> 5
7,COCc1ccc2c(C(=O)N3CCc4[nH]cnc4C3c3cc4cccc(Cl)n4n3)cnn2c1 (stereo not shown) [listing 1 of 2 here],> 5
8,Cc1ccc2c(C(=O)N3CCc4[nH]cnc4C3c3cc4cccc(Cl)n4n3)cnn2c1 (stereo not shown) [listing 1 of 2 here],> 5
9,Cc1ccc2c(C(=O)N3CCc4[nH]cnc4C3c3cc4cccc(C)n4n3)cnn2c1 (stereo not shown) [listing 1 of 2 here],> 5
10,COCCNc1nnc(C(=O)N2CCc3[nH]cnc3C2c2cc3ccccn3n2)o1 (stereo not shown) [listing 1 of 2 here],> 5
11,CN(C)Cc1ccc2c(C(=O)N3CCc4[nH]cnc4C3c3cc4cccc(C(F)F)n4n3)cnn2c1 (stereo not shown) [listing 1 of 2 here],> 5
12,O=C(c1nnc(N2CC(F)C2)o1)N1CCc2[nH]cnc2C1c1cc2ccccn2n1 (stereo not shown),1 to 5
13,FC(F)c1cccn2nc(C3c4nc[nH]c4CCN3c3nc4ccccc4o3)cc12 (stereo not shown),> 5
14,O=C(c1nnc(-c2cnn(C(F)(F)F)c2)o1)N1CCc2[nH]cnc2C1c1cc2c(OC(F)(F)F)cccn2n1 (stereo not shown),1 to 5
15,FC(F)(F)c1cccn2nc(C3c4nc[nH]c4CCN3c3nc4ccccc4o3)cc12 (stereo not shown),> 5
16,FC(F)c1nnc(N2CCc3[nH]cnc3C2c2cc3cccc(Cl)n3n2)o1 (stereo not shown),1 to 5
17,Cc1nnc(N2CCc3[nH]cnc3C2c2cc3cccc(F)n3n2)o1 (stereo not shown),> 5
18,Fc1cccc2cc(C3c4nc[nH]c4CCN3c3ncccn3)nn12 (stereo not shown),1 to 5
19,Cc1cccc2cc(C3c4nc[nH]c4CCN3c3ncc(N)cn3)nn12 (stereo not shown),1 to 5
20,Cc1cccc2cc(C3c4nc[nH]c4CCN3c3ncccn3)nn12 (stereo not shown),1 to 5
21,COc1cccn2nc(C3c4nc[nH]c4CCN3C(=O)c3nnc(-c4cnccn4)o3)cc12 (stereo not shown),1 to 5
22,COc1cccn2nc(C3c4nc[nH]c4CCN3C(=O)c3nnc(-c4ncccn4)o3)cc12 (stereo not shown),> 5
23,Cc1ccc2c(C(=O)N3CCc4[nH]cnc4C3c3cc4cccc(C(F)(F)F)n4n3)cnn2c1 (stereo not shown),1 to 5
24,FC(F)c1nnc(N2CCc3[nH]cnc3C2c2cc3cccc(C(F)(F)F)n3n2)o1 (stereo not shown),1 to 5

row,Structure (SMILES),AC50 [µM]
1,Fc1cccc2cc(C3c4nc[nH]c4CCN3c3nnc(C(F)F)o3)nn12 (stereo not shown),1 to 5
2,COCc1ncc(C(=O)N2CCc3[nH]cnc3C2c2cc3ccccn3n2)s1 (stereo not shown) [listing 2 of 2 here],1 to 5
3,Fc1cccn2nc(C3c4nc[nH]c4CCN3c3nnc(C4CCC4)o3)cc12 (stereo not shown),1 to 5
4,Cc1nnc(N2CCc3[nH]cnc3C2c2cc3c(C(F)(F)F)cccn3n2)o1 (stereo not shown),1 to 5
5,Cc1nnc(N2CCc3[nH]cnc3C2c2cc3cccc(C(F)(F)F)n3n2)o1 (stereo not shown),1 to 5
6,Cc1nnc(N2CCc3[nH]cnc3C2c2cc3cccc(C)n3n2)o1 (stereo not shown),1 to 5
7,CC(C)(C)c1nnc(N2CCc3[nH]cnc3C2c2cc3c(C(F)(F)F)cccn3n2)o1 (stereo not shown),1 to 5
8,COc1cccn2nc(C3c4nc[nH]c4CCN3C(=O)c3cnn4cc(N(C)C)ccc34)cc12 (stereo not shown) [listing 2 of 2 here],1 to 5
9,CN(C)c1ccc2c(C(=O)N3CCc4[nH]cnc4C3c3cc4cccc(F)n4n3)cnn2c1 (stereo not shown),1 to 5
10,Cc1nnc(CCC(=O)N2CCc3[nH]cnc3C2c2cc3ccccn3n2)s1 (stereo not shown),> 5
11,COc1cccn2nc(C3c4nc[nH]c4CCN3C(=O)c3nnc(-c4ncccc4F)o3)cc12 (stereo not shown),1 to 5
12,O=C(c1cnn2cc(N3CCOCC3)ccc12)N1CCc2[nH]cnc2C1c1cc2c(F)cccn2n1 (stereo not shown),1 to 5
13,COc1cccn2nc(C3c4nc[nH]c4CCN3C(=O)c3cnn4cc(N5CCOCC5)ccc34)cc12 (stereo not shown),> 5
14,COc1cccn2nc(C3c4nc[nH]c4CCN3C(=O)c3cnn4cc(-c5cnn(C)c5)ccc34)cc12 (stereo not shown) [listing 2 of 2 here],1 to 5
15,Cc1cccn2nc(C3c4nc[nH]c4CCN3C(=O)c3cnn4cc(N5CCOCC5)ccc34)cc12 (stereo not shown),1 to 5
16,O=C(c1cnn2cc(N3CCOCC3)ccc12)N1CCc2[nH]cnc2C1c1cc2cccc(C(F)(F)F)n2n1 (stereo not shown),1 to 5
17,COCc1ccc2c(C(=O)N3CCc4[nH]cnc4C3c3cc4c(C(F)F)cccn4n3)cnn2c1 (stereo not shown),1 to 5
18,COc1ccc2c(C(=O)N3CCc4[nH]cnc4C3c3cc4c(OC)cccn4n3)cnn2c1 (stereo not shown) [listing 2 of 2 here],1 to 5
19,FC(F)c1cccn2nc(C3c4nc[nH]c4CCN3c3nnc(N4CCOCC4)o3)cc12 (stereo not shown),> 5
20,FC(F)(F)c1cccn2nc(C3c4nc[nH]c4CCN3c3nnc(N4CCOCC4)o3)cc12 (stereo not shown),> 5
21,Fc1cccn2nc(C3c4nc[nH]c4CCN3c3nnc(N4CCOCC4)o3)cc12 (stereo not shown),1 to 5
22,Cc1cccn2nc(C3c4nc[nH]c4CCN3c3nnc(N4CCOCC4)o3)cc12 (stereo not shown),1 to 5
23,COCc1ccc2c(C(=O)N3CCc4[nH]cnc4C3c3cc4cccc(C(F)F)n4n3)cnn2c1 (stereo not shown),1 to 5
24,COc1ccc2c(C(=O)N3CCc4[nH]cnc4C3c3cc4cccc(C(F)F)n4n3)cnn2c1 (stereo not shown) [listing 2 of 2 here],1 to 5

row,Structure (SMILES),AC50 [µM]
1,COCc1ccc2c(C(=O)N3CCc4[nH]cnc4C3c3cc4cccc(Cl)n4n3)cnn2c1 (stereo not shown) [listing 2 of 2 here],1 to 5
2,CN(C)C(=O)c1nnc(N2CCc3[nH]cnc3C2c2cc3c(C(F)F)cccn3n2)o1 (stereo not shown),1 to 5
3,COCCc1ccc2c(C(=O)N3CCc4[nH]cnc4C3c3cc4cccc(C(F)(F)F)n4n3)cnn2c1 (stereo not shown),1 to 5
4,COCCc1ccc2c(C(=O)N3CCc4[nH]cnc4C3c3cc4ccccn4n3)cnn2c1 (stereo not shown),> 5
5,COCc1ccc2c(C(=O)N3CCc4[nH]cnc4C3c3cc4cccc(C)n4n3)cnn2c1 (stereo not shown),1 to 5
6,COCc1ccc2c(C(=O)N3CCc4[nH]cnc4C3c3cc4c(OC)cccn4n3)cnn2c1 (stereo not shown),1 to 5
7,O=C(c1cnn2cc(C3CC3)ccc12)N1CCc2[nH]cnc2C1c1cc2cccc(C(F)(F)F)n2n1 (stereo not shown),1 to 5
8,Cc1cccc2cc(C3c4nc[nH]c4CCN3C(=O)c3cnn4cc(C5CC5)ccc34)nn12 (stereo not shown),1 to 5
9,COc1ccc2c(C(=O)N3CCc4[nH]cnc4C3c3cc4cccc(C(F)(F)F)n4n3)cnn2c1 (stereo not shown),1 to 5
10,Cc1ccc2c(C(=O)N3CCc4[nH]cnc4C3c3cc4cccc(C(F)F)n4n3)cnn2c1 (stereo not shown),1 to 5
11,O=C(c1cnn2ccccc12)N1CCc2[nH]cnc2C1c1cc2cccc(C(F)F)n2n1 (stereo not shown),1 to 5
12,Cc1ccc2c(C(=O)N3CCc4[nH]cnc4C3c3cc4cccc(Cl)n4n3)cnn2c1 (stereo not shown) [listing 2 of 2 here],1 to 5
13,Cc1ccc2c(C(=O)N3CCc4[nH]cnc4C3c3cc4cccc(C)n4n3)cnn2c1 (stereo not shown) [listing 2 of 2 here],1 to 5
14,COCCNc1nnc(C(=O)N2CCc3[nH]cnc3C2c2cc3ccccn3n2)o1 (stereo not shown) [listing 2 of 2 here],> 5
15,O=C(c1nnc(NC2CC2)o1)N1CCc2[nH]cnc2C1c1cc2ccccn2n1 (stereo not shown),1 to 5
16,CN(C)CCc1ccc2c(C(=O)N3CCc4[nH]cnc4C3c3cc4c(F)cccn4n3)cnn2c1 (stereo not shown),1 to 5
17,CN(C)Cc1ccc2c(C(=O)N3CCc4[nH]cnc4C3c3cc4cccc(C(F)F)n4n3)cnn2c1 (stereo not shown) [listing 2 of 2 here],1 to 5
18,CN(C)Cc1ccc2c(C(=O)N3CCc4[nH]cnc4C3c3cc4cccc(Cl)n4n3)cnn2c1 (stereo not shown),1 to 5
19,CN(C)Cc1ccc2c(C(=O)N3CCc4[nH]cnc4C3c3cc4cccc(F)n4n3)cnn2c1 (stereo not shown),1 to 5
20,Cc1cccn2nc(C3c4nc[nH]c4CCN3C(=O)c3cnn4cc(CCN(C)C)ccc34)cc12 (stereo not shown),1 to 5
21,CN(C)Cc1nnc(C(=O)N2CCc3[nH]cnc3C2c2cc3ccccn3n2)o1 (stereo not shown),> 5
22,Cc1ncoc1C(=O)N1CC2(CC2)c2[nH]cnc2C1c1cc2ccccn2n1 (stereo not shown),1 to 5
